Reference: the supplement of paper PMC5908809

How the values were obtained:
[1] = system: normal NK cells expanded with K562-aAPC; assay: percent inhibition of viability; higher = more inhibition; conditions: 72 h, IL-2 2.5 ng/mL
Method: (§1)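 Drug sensitivity and resistance testing on K562-aAPC-expanded normal NK cells: 5 concentrations (10-fold steps over a 10,000-fold range), 72 h at 37 °C, viability by CellTiter-Glo normalised to DMSO and benzethonium chloride controls; DSS from the fitted curve.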

[2] = system: normal NK cells expanded with K562-aAPC; assay: drug sensitivity score (DSS) (DSS units); higher = more sensitive; extreme values may be limits of the assay; conditions: 72 h; IL-2 2.5 ng/mL
Method: as §1

[3] = system: NK-YS (IL-2 2.5 ng/mL); assay: as above; conditions: 72 h
[4] = system: KAI3 (IL-2 2.5 ng/mL); assay: as above; conditions: 72 h
[5] = system: NK-92 (IL-2 2.5 ng/mL); assay: as above; conditions: 72 h
[6] = system: NKL (IL-2 2.5 ng/mL); assay: as above; conditions: 72 h
[7] = system: KHYG-1 (IL-2 2.5 ng/mL); assay: as above; conditions: 72 h
[8] = system: normal primary NK cells, pool 3 (3 donors) (IL-2 2.5 ng/mL); assay: as above; conditions: 72 h
[9] = system: DERL-7 (IL-2 2.5 ng/mL); assay: as above; conditions: 72 h
[10] = system: SNK-6 (IL-2 2.5 ng/mL); assay: as above; conditions: 72 h
[11] = system: normal primary NK cells, pool 1 (3 donors) (IL-2 2.5 ng/mL); assay: as above; conditions: 72 h
[12] = system: YT (IL-2 2.5 ng/mL); assay: as above; conditions: 72 h
[13] = system: normal primary NK cells, pool 2 (3 donors) (IL-2 2.5 ng/mL); assay: as above; conditions: 72 h
[14] = system: IMC-1 (IL-2 20 ng/mL); assay: as above; conditions: 72 h
[15] = system: normal primary NK cells, pool 1 (3 donors), resting (IL-2 0 ng/mL); assay: as above; conditions: 72 h
[16] = system: NK-YS (IL-2 2.5 ng/mL); assay: percent inhibition of viability; higher = more inhibition; conditions: 72 h
[17] = system: KAI3 (IL-2 2.5 ng/mL); assay: as above; conditions: 72 h
[18] = system: NK-92 (IL-2 2.5 ng/mL); assay: as above; conditions: 72 h
[19] = system: NKL (IL-2 2.5 ng/mL); assay: as above; conditions: 72 h
[20] = system: KHYG-1 (IL-2 2.5 ng/mL); assay: as above; conditions: 72 h
[21] = system: normal primary NK cells, pool 3 (3 donors) (IL-2 2.5 ng/mL); assay: as above; conditions: 72 h
[22] = system: DERL-7 (IL-2 2.5 ng/mL); assay: as above; conditions: 72 h
[23] = system: SNK-6 (IL-2 2.5 ng/mL); assay: as above; conditions: 72 h
[24] = system: normal primary NK cells, pool 1 (3 donors) (IL-2 2.5 ng/mL); assay: as above; conditions: 72 h
[25] = system: YT (IL-2 2.5 ng/mL); assay: as above; conditions: 72 h
[26] = system: normal primary NK cells, pool 2 (3 donors) (IL-2 2.5 ng/mL); assay: as above; conditions: 72 h
[27] = system: IMC-1 (IL-2 20 ng/mL); assay: as above; conditions: 72 h
[28] = system: normal primary NK cells, pool 1 (3 donors), resting (IL-2 0 ng/mL); assay: as above; conditions: 72 h

CC1(C)NC(=O)N(c2ccc([N+](=O)[O-])c(C(F)(F)F)c2)C1=O [Nilutamide] (max concentration tested 10000 nM)
percent inhibition of viability [%]
Conditions | 1 nM | 10 nM | 100 nM | 1000 nM | 10000 nM
[1] | -10 | -7.03 | -6.98 | -0.84 | 12.4
[16] | -5.09 | -3.33 | -3.78 | 3.59 | 17.6
[17] | 2 | 1.75 | 11.7 | 3.52 | 28.1
[18] | -0.95 | -6.88 | 4.02 | -1.88 | 24.8
[19] | 10.6 | 5.58 | 15.2 | 17.2 | 31.6
[20] | 24.8 | -7.14 | -0.73 | -1.75 | 15.3
[21] | 1.57 | 6.88 | 3.88 | -4.89 | -2.84
[22] | -0.2 | -1.34 | 3.47 | -0.03 | 1.75
[23] | 33.2 | -24.8 | -17.7 | -22.5 | -4.35
[24] | -9.72 | 5.06 | -2.38 | 6.35 | 1.66
[25] | 0.36 | -6.16 | 5.94 | -0.37 | 25
[26] | -2.69 | 6.11 | 0.2 | 1.25 | 3.42
[27] | 0 | -0.12 | 2.93 | 3 | 40.4
[28] | -1.3 | 10.6 | 10.3 | 9.07 | 18.9

Conditions | drug sensitivity score
[2] | 0.04
[3] | 0.84
[4] | 1.74
[5] | 0.81
[6] | 4.46
[7] | 0.08
[8] | 0
[9] | 0
[10] | 0
[11] | 0
[12] | 0.93
[13] | 0
[14] | 2.47
[15] | 1.43

CNC(=O)c1ccccc1Sc1ccc2c(/C=C/c3ccccn3)n[nH]c2c1 [Axitinib] (max concentration tested 10000 nM)
percent inhibition of viability [%]
Conditions | 1 nM | 10 nM | 100 nM | 1000 nM | 10000 nM
[1] | -1.18 | -2.54 | -3.5 | 11.1 | 58.7
[16] | -3.68 | -2.56 | 3.21 | 38.7 | 85
[17] | 2.52 | -0.91 | 10.2 | 47.2 | 82
[18] | -13.6 | -7.2 | -14 | 24.3 | 90.7
[19] | -1.55 | -1.93 | 18.9 | 32.5 | 69.6
[20] | -2.88 | -3.36 | 4.43 | 49.4 | 93.1
[21] | -8.62 | 6.8 | 13 | 1.12 | 23
[22] | -3.47 | 7.74 | 27 | 64.5 | 94
[23] | -4.55 | -16.4 | -11.7 | 55.8 | 78.6
[24] | -5.69 | 14.3 | 5.75 | 13.8 | 44.6
[25] | -2.15 | -4.48 | 1.03 | 33 | 85
[26] | -13.7 | 4.14 | 6.01 | -6.27 | 42.8
[27] | -1.86 | -0.66 | 0.71 | 4.7 | 89.3
[28] | -14.3 | 9 | 2.7 | 0.6 | 42.6

Conditions | drug sensitivity score
[2] | 5.02
[3] | 9.35
[4] | 10.5
[5] | 8.68
[6] | 8.51
[7] | 11
[8] | 0.95
[9] | 15.7
[10] | 10.8
[11] | 3.89
[12] | 9.19
[13] | 1.77
[14] | 5.63
[15] | 2.23

COc1ccc2c(OCc3nnc4ccc(-c5ccccc5)nn34)ccnc2c1 [AMG-208] (max concentration tested 2500 nM)
percent inhibition of viability [%]
Conditions | 0.25 nM | 2.5 nM | 25 nM | 250 nM | 2500 nM
[1] | -4.22 | -2.93 | 1.22 | -1.02 | 9.46
[16] | -3.94 | -3.82 | -0.96 | 1.47 | 6.08
[17] | -0.14 | -2.19 | -6.54 | 1.34 | 11.6
[18] | 0.24 | -14.7 | -6.65 | 10.4 | 13.1
[19] | -4.88 | -0.72 | 5.74 | 1.87 | 1.01
[20] | -2.14 | 0.21 | 1.18 | 6.23 | 15.6
[21] | -8.14 | -5.89 | 5.5 | 0.46 | 5.72
[22] | -3.09 | -8.21 | -1.7 | -5.84 | -4.71
[23] | 2.2 | 11.6 | 22.9 | 28.1 | 18.8
[24] | 0.88 | 0.76 | 0.54 | 1.27 | 4.15
[25] | 1.44 | 4.97 | 5.31 | 10 | 12.4
[26] | -3.74 | -5.68 | 4.86 | 9.98 | 4.41
[27] | -1.21 | 1.46 | 1.28 | 6.67 | 11.1
[28] | -15.8 | -2.94 | 7.27 | 3.54 | -2.41

Conditions | drug sensitivity score
[2] | 0
[3] | 0
[4] | 0.07
[5] | 0.61
[6] | 0
[7] | 0.59
[8] | 0
[9] | 0.89
[10] | 7.74
[11] | 0
[12] | 0.16
[13] | 0
[14] | 0.02
[15] | 0

COc1cc([C@@H]2c3cc4c(cc3[C@@H](O[C@@H]3O[C@@H]5CO[C@@H](C)O[C@H]5[C@H](O)[C@H]3O)[C@H]3COC(=O)[C@H]23)OCO4)cc(OC)c1O [Etoposide] (max concentration tested 10000 nM)
percent inhibition of viability [%]
Conditions | 1 nM | 10 nM | 100 nM | 1000 nM | 10000 nM
[1] | -5.25 | -8.84 | -1.72 | 49.7 | 65.7
[16] | 3.6 | 4.01 | 29.1 | 77.3 | 83.9
[17] | 5.94 | 13.2 | 41.3 | 76.4 | 78
[18] | -7.31 | -6.78 | 5.02 | 67.3 | 101
[19] | -3.26 | 4.8 | 80.7 | 94.3 | 101
[20] | -3.98 | -9.64 | 3.44 | 87.1 | 101
[21] | 0.28 | -3.78 | 10.1 | 11.7 | 48.3
[22] | -3.7 | 3.15 | 32.8 | 97 | 82.8
[23] | -11.1 | 0.92 | -0.88 | 74.3 | 96.2
[24] | -1.51 | 1.58 | 11.1 | 14.3 | 79.7
[25] | -3.45 | -8.19 | -5.67 | 44.7 | 98.2
[26] | -2.19 | -0.27 | 0.34 | 8.73 | 53.7
[27] | -6.15 | 1.75 | 34.8 | 97.9 | 99.5
[28] | 0.93 | 10 | 22.8 | 40 | 90.5

Conditions | drug sensitivity score
[2] | 9.42
[3] | 17.7
[4] | 19.3
[5] | 13.7
[6] | 28
[7] | 16.2
[8] | 4.07
[9] | 21.9
[10] | 13.8
[11] | 6.78
[12] | 11.1
[13] | 4.34
[14] | 22.2
[15] | 11.3
